The text below walks through data of patent US20240408094A1, “INHIBITION OF USP7 INDUCES P53-INDEPENDENT TUMOR GROWTH SUPPRESSION IN TRIPLE-NEGATIVE BREAST CANCERS BY DESTABILIZING FOXM1” (The Trustees of Columbia University in the City of New York, priority 2023, published 2024).

SMILES strings stand for the structures. Where a SMILES comes first, the peptide text is derived from it. The star is where a group is joined. Cbz = O=C(OCc1ccccc1)*

In test [1] the target is T1, USP7 (Homo sapiens, UniProt Q93009).
T1 construct: used to treat CAL33 cells that express high levels of USP7 protein; endogenous in cells; host or cells: CAL33 (human head and neck squamous cell cancer); for A6 also the CRBN CRISPR knockout CAL33
T1 sequence (Q93009 whole entry): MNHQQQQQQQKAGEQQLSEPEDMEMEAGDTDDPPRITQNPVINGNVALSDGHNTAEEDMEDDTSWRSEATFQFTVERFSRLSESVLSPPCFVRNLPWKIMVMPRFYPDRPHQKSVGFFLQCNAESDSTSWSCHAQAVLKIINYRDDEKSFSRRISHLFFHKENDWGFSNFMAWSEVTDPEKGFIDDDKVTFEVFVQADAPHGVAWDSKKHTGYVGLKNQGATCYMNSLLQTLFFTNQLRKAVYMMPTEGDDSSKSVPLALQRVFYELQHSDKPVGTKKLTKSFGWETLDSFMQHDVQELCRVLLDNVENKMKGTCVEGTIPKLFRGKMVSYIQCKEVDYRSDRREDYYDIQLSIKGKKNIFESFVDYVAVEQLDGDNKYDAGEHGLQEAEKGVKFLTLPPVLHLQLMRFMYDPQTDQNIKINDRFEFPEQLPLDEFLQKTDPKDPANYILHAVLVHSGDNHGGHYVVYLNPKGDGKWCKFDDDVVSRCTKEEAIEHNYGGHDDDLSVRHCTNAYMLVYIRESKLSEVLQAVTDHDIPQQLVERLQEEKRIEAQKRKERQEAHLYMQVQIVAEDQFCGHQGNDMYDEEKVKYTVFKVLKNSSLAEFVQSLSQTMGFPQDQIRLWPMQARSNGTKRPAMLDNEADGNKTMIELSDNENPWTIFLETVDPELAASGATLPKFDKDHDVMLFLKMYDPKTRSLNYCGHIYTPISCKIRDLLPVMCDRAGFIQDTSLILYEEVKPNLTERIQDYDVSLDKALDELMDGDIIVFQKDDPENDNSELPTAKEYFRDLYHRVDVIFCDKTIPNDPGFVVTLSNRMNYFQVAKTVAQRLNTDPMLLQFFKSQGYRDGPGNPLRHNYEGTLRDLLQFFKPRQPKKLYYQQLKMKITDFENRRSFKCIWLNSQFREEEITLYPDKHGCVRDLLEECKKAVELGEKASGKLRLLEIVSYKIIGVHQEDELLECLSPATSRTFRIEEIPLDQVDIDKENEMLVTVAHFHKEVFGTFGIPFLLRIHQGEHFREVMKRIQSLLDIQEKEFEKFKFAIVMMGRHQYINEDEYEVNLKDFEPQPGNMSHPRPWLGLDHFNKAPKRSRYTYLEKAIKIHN
Nature of the test: Rescue of PU7-1-mediated USP7 degradation by pathway inhibitors in CAL33. The class given is cell-based. As to conditions: CAL33, 5 μM PU7-1; 5 μM MLN4924, 25 μM Chloroquine or 5 μM MG132 for 24 h. As for the experimental part:
USP7 protein levels were detected by immunoblots. […] USP7 protein levels were measured by immunoblots. […] USP7 protein levels were detected by immunoblots, then quantified by ImageJ after normalized to internal control β-actin. Half maximal degradation concentration (DC50) was calculated by Graphpad Prism.
To investigate the mechanism of action of PU7-1, CRBN knockout (KO) CAL33 cell line was generated using CRISPR-Cas9 technology. Control and CRBN KO cells were treated with 2.5 μM of PU7-1 for 72 h and then the expression levels of USP7 and CRBN proteins were detected by western blot analysis. CRBN protein was undetectable in the KO cells (FIG. 3H). […] CAL33 cells were first treated with 5 μM of PU7-1 for 48 h to degrade the USP7 proteins, and then treated with 5 μM of MLN4924, 25 μM of Chloroquine (CLQ) or 5 μM of MG132 for additional 24 h.

The test system of another test is FOXM1. Nature of the test: Block of PU7-1-induced FOXM1 destabilization by pathway inhibitors in CAL33. The class given is cell-based, human. As to conditions: CAL33, 10 μM PU7-1 72 h; 1 μM MLN4924 or BafA1 24 h, 10 μM MG132 6 h.
Test [2] concerns the target T1, USP7. Nature of the test: USP7 protein degradation by western blot in CAL33 cells. The class given is cell-based. To be noted: CAL33 and A549 cells, 2.5 μM, 48 h. On the procedure: To specifically degrade USP7, a set of 66 PROTAC compounds were designed and synthesized that contain an USP7 specific binding moiety XL177A and an E3 ubiquitin ligase (CRBN or VHL) binding moiety connected by different linkers. All putative USP7 PROTACs were used to treat CAL33 cells that express high levels of USP7 protein, and then the USP7 protein levels were determined by western blot (FIGS. 10A and 10B). Through initial screening, PU7-1 was identified as a potential USP7 degrader (FIG. 3A and FIG. 10). […] The effect of PU7-1 was also tested in several human cancer cells harboring wild-type p53. […] In addition, to exclude the possibility that PU7-1 affects the USP7 protein levels by regulating its transcription, a quantitative real-time PCR was performed in CAL33 treated with PU7-1 for 72 h. […]
Cells were lysed in FLAG lysis buffer (50 mM Tris-HCl (pH 7.3), 137 mM NaCl, 10 mM NaF, 0.5 mM EDTA, 1% Triton X-100, 0.2% Sarkosyl, 10% glycerol) freshly supplemented with protease inhibitor cocktail. Protein concentration was determined by the Bio-Rad protein assay. […] Membranes were blocked with 5% (w/v) nonfat milk in Tris-buffered saline with Tween-20 (TBST), incubated with primary antibodies, then secondary HRP-conjugated antibodies (Jackson ImmunoResearch, 1:10000 dilution) and detected on autoradiographic films after incubating with ECL (Thermo Scientific, #32106). […]
(Immunoblotting shows a protein as a band on a membrane.)

On to `CCN(CC)CCCC(C)Nc1ccnc2cc(Cl)ccc12` (stereo not drawn) [Chloroquine], for which the “effect on USP7 degradation mediated by PU7-1” value (“effect” below) at USP7 [1] is listed as “no effect”.
With `CC(C)C[C@@H](C=O)NC(=O)[C@H](CC(C)C)NC(=O)[C@H](CC(C)C)NC(=O)OCc1ccccc1` [MG132] (Cbz-Leu-Leu-Leu-aldehyde), the “block of PU7-1-induced destabilization of FOXM1” value in the test with FOXM1 is “readily blocked”. Further, the “effect” value on USP7 [1] was “significantly rescued”.
On to `NS(=O)(=O)OC[C@@H]1C[C@@H](n2ccc3c(N[C@H]4CCc5ccccc54)ncnc32)C[C@@H]1O` [MLN4924], for which, in the test with FOXM1, the “block of PU7-1-induced destabilization of FOXM1” value is given as “readily blocked”. The “effect” value on USP7 [1] was “significantly rescued”.
Turning to `CN1C(=O)CCC(N2Cc3c(CCCCCN4CCN(CCC(=O)Nc5ccc6c(=O)n(CC7(O)CCN(C(=O)C(CCCNC(=O)c8ccc9c(Cl)c%10c(nc9c8)CCCC%10)Cc8ccccc8)CC7)cnc6c5)CC4)cccc3C2=O)C1=O` (stereo not drawn) [PU7-1N, N-(4-benzyl-5-(4-hydroxy-4-((7-(3-(4-(5-(2-(1-methyl-2,6-dioxopiperidin-3-yl)-1-oxoisoindolin-4-yl)pentyl)piperazin-1-yl)propanamido)-4-oxoquinazolin-3 (4H)-yl)methyl)piperidin-1-yl)-5-oxopentyl)-9-chloro-5,6,7,8-tetrahydroacridine-3-carboxamide], the “capability to degrade USP7 protein” value on USP7 [2] is listed as “defective capability to degrade USP7 protein”.
